This is an account of results in US12240844B2 (Voronoi, Inc., priority 2019, dated 2025).

Assay [1] has as its target T1, human GST-DYRK1A (full length) (Homo sapiens, UniProt Q13627).
T1 construct: purified human GST-DYRK1A (full length, Thermo scientifics) enzyme; GST; purchased Thermo scientifics
The experiment in a line: GST-DYRK1A enzyme inhibition, ADP-Glo kinase assay. Format: biochemical. The conditions noted are these: read-out: DYRK1 IC50. The essentials: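 Full-length human GST-DYRK1A (10 ng) incubated with 10 uM ATP and specific substrate for 1 h at 25° C in 40 mM Tris-HCl pH 7.4, 20 mM MgCl2, 0.5 mg/mL BSA, 50 uM DTT. ADP formation read by ADP-Glo luminescence; IC50 (nM) versus solvent control, triplicate.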
Background: In ADP-Glo the light output rises with the ADP produced.

Assay [2] deals with SHP-77. The experiment in a line: SHP-77 cancer cell proliferation inhibition (Cell Titer-Glo). The conditions noted are these: Homo sapiens, SHP77, SHP-77 small cell lung cancer cell line, 72 hours. The assay is classed as cell-based. How it is done: (§1) In order to evaluate the cancer cell proliferation inhibitory activity of the compounds of the present invention, the following experiments were performed.
(§2) To evaluate the cancer cell proliferation inhibitory effect, the cell growth rate analysis was performed while culturing MDA-MB-231 cell line (Korean Cell Line Bank #30026) and MDA-MB-468 cell line as the triple-negative breast cancer cell line, and SHP-77 (ATCC #CRL-2195) as the small cell lung cancer cell line in DMEM (HyClone #SH30243) and RPMI medium (HyClone #SH3027.01), respectively. More specifically, the cell lines were each plated at 2000 cells/100 μl in each well of a 96-well flat-bottom plate (coming #3903), and then the example compounds having eleven concentrations which were diluted by ⅓ so that the final concentrations were 10.000000, 3.333333, 1.111111, 0.370370, 0.123457, 0.041152, 0.013717, 0.004572, 0.001524, 0.000508 and 0.000169 μM were treated. After 72 hours, 100 μl of Cell Titer-Glo (Promega G7573) was treated, incubated at RT for 10 minutes, and then luminescence was measured using a microplate reader. The measured luminescence degree was calculated as GI50 using Prism (version 8.2 GraphPad) software.
(§3) In the table below, the following designations were used for the evaluation of proliferation inhibitory activity.

Assay [3] deals with T2, human GST-CLK1 (129-end) (Homo sapiens, UniProt P49759).
T2 construct: purified human GST-CLK1 (129-end, Signalchem) enzyme; GST; purchased Signalchem
The experiment in a line: GST-CLK1 enzyme inhibition, ADP-Glo kinase assay. Format: biochemical. The conditions noted are these: ATP 10 uM. Summed up: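 GST-CLK1 (129-end, 3 ng) reacted with 10 uM ATP and substrate in 40 mM Tris-HCl pH 7.4, 20 mM MgCl2, 0.5 mg/mL BSA, 50 uM DTT, 1 h at 25° C. ADP-Glo luminescence normalised to solvent control; IC50 from triplicate data.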

Assay [4] concerns the target LRRK2 (Homo sapiens, UniProt Q5S007). The experiment in a line: LRRK2 enzyme inhibition, ADP-Glo kinase assay. Format: biochemical. Also on record: purchased Invitrogen PR8604B. The essentials: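 Purified human LRRK2 (25 ng) in 40 mM Tris-HCl pH7.4, 20 mM MgCl2, 0.5 mg/ml BSA, 50 μM DTT with 10 μM ATP and substrate ([…]), 2 h at 25° C. Final compound 50 to 0.000001024 μM, 12-point dilution. ADP-Glo luminescence vs solvent control; IC50 (nM).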

The subject of assay [5] is MDA-MB-231 cell line. The experiment in a line: MDA-MB-231 cancer cell proliferation inhibition (Cell Titer-Glo). Format: cell-based. As to conditions: Homo sapiens, MDA-MB-231 triple-negative breast cancer cell line, 72 hours. How it is done:
as §1, §2, §3
(ATP-based viability assays read luminescence as a measure of living cells.)

In assay [6] the target is LRRK2 (G2019S) (Homo sapiens, UniProt Q5S007, G2019S). The experiment in a line: LRRK2 G2019S enzyme inhibition, ADP-Glo kinase assay. Format: biochemical. Also on record: purchased SignalChem L10-12GG. The essentials:
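Purified human LRRK2 G2019S (16 ng) with 25 μM ATP and 0.2 μg substrate, 2 h at 25° C in 40 mM Tris-HCl pH 7.4, 20 mM MgCl2, 0.5 mg/ml BSA, 50 μM DTT; compound at 12 final concentrations from 50 μM downward. ADP-Glo luminescence versus solvent control gave IC50 (nM).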

In assay [7] the test system is human DYRK1A and Tau. The experiment in a line: Tau phosphorylation inhibition, ClariCELL Kinase Cell-Based Assay (Carnabio). How it is done: Tau phosphorylation inhibitory efficacy was measured using the ClariCELL™ Kinase Cell-Based Assay service of Carnabio, located in the United States. The compounds are exposed to human embryonic kidney ([…]) cells transiently expressing human DYRK1A and Tau, and then the cells are lysed to release cellular proteins. At this time, the released Tau is captured on a plate, and the degree of phosphorylation is quantified by ELISA using an antibody specific for Tau phosphorylation.

Bounds are passed on as bounds.

T2 sequence (P49759 129-484 limits assumed): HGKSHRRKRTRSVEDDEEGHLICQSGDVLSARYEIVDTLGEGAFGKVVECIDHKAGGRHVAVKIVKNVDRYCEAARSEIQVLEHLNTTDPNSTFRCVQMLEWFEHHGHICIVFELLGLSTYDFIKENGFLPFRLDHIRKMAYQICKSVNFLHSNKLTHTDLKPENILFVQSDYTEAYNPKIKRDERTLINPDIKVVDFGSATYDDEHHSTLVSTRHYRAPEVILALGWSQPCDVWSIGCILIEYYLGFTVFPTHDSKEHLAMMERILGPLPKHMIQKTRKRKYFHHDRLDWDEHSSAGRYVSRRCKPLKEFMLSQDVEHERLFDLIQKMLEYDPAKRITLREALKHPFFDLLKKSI
Chain of LRRK2 (Q5S007 970-2527 limits assumed): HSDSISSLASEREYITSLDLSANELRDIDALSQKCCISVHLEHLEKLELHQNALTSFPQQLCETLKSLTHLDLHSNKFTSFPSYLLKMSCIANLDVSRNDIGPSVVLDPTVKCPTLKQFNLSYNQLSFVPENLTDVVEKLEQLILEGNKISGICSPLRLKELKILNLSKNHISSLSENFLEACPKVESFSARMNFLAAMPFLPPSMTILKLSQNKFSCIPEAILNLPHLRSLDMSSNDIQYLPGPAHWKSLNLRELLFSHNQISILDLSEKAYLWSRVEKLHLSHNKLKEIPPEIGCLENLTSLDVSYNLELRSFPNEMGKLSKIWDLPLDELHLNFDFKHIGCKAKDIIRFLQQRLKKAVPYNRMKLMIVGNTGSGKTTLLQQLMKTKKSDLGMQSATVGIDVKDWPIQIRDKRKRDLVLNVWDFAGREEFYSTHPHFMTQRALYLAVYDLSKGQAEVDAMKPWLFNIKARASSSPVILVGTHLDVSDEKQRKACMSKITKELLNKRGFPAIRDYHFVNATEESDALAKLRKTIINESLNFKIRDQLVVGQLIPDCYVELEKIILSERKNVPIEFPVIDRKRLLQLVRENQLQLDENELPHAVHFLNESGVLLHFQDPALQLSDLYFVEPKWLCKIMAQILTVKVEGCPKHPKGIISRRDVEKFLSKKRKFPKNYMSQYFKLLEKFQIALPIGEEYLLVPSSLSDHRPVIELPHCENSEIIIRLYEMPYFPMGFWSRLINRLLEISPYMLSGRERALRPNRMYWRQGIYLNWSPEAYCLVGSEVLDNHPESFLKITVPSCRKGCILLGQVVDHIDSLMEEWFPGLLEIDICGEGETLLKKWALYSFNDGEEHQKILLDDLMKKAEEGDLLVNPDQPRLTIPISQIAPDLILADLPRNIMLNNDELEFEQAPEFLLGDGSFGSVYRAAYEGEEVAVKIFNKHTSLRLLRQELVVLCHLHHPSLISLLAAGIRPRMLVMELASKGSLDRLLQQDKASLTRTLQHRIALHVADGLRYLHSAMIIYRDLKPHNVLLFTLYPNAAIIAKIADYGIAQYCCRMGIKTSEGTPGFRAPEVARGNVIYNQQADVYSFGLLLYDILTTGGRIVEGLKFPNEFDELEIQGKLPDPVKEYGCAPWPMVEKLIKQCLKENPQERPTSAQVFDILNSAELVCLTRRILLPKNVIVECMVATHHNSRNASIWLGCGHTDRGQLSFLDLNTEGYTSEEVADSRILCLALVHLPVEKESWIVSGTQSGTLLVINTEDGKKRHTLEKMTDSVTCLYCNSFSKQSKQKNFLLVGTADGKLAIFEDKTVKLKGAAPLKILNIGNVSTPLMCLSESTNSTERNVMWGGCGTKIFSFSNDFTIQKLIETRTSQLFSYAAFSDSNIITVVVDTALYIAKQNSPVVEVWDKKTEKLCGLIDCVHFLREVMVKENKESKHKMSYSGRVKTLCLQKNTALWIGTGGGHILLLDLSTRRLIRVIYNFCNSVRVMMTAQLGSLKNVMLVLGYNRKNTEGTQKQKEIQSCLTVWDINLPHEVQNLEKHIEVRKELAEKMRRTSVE
Chain of LRRK2 (G2019S) (Q5S007 970-2527 G2019S limits assumed): as the sequence (Q5S007 970-2527 limits assumed) above, with G1050S counted along it

On to `CCNc1cc(Nc2ccc(S(=O)(=O)N3CCC(N4CCOCC4)CC3)c3c2OCC3)nc2[nH]cc(C(F)(F)F)c12` [Example 104, N^4-ethyl-N^6-(4-((4-morpholinopiperidin-1-yl)sulfonyl)-2,3-dihydrobenzofuran-7-yl)-3-(trifluoromethyl)-1H-pyrrolo[2,3-b]pyridine-4,6-diamine], for which the IC50 – broadly, the concentration needed to halve the response being measured – in assay [1] is 301 to 1000 nM; in assay [3] it was 301 to 1000 nM; in assay [4], under 100 nM. In addition, the figures for the GI50 in assay [2] and in assay [5] were 101 to 300 nM and 301 to 1000 nM, respectively.
For the molecule `COc1cc(S(=O)(=O)N2CCC(N3CCOCC3)CC2)ccc1Nc1cc(NC2CCC2)c2c(C(F)(F)F)c[nH]c2n1` [Example 202, N^4-cyclobutyl-N^6-(2-methoxy-4-((4-morpholinopiperidin-1-yl)sulfonyl)phenyl)-3-(trifluoromethyl)-1H-pyrrolo[2,3-b]pyridine-4,6-diamine], the IC50 in assay [1], in assay [3] and in assay [4] was 301 to 1000 nM throughout. Besides, the GI50 in assay [2] and in assay [5] was 301 to 1000 nM in each case.
For `CCOc1cc(Nc2ccc(S(=O)(=O)N3CCC(N4CCOCC4)CC3)cc2OC)nc2[nH]cc(C(F)(F)F)c12` [Example 232, 4-ethoxy-N-(2-methoxy-4-((4-morpholinopiperidin-1-yl)sulfonyl)phenyl)-3-(trifluoromethyl)-1H-pyrrolo[2,3-b]pyridin-6-amine], the values for the IC50 in assay [1], in assay [3] and in assay [4] were 101 to 300 nM, 301 to 1000 nM and 101 to 300 nM, respectively. The GI50 in assay [2] and in assay [5] was 301 to 1000 nM throughout.
Regarding `CCNc1cc(Nc2ccc(P3(=O)CCN(C4COC4)CC3)cc2OC)nc2[nH]cc(C(F)(F)F)c12` [Example 39, 4-(4-((4-(ethylamino)-3-(trifluoromethyl)-1H-pyrrolo[2,3-b]pyridin-6-yl)amino)-3-methoxyphenyl)-1-(oxetan-3-yl)-1,4-azaphosphinane 4-oxide], the IC50 in assay [1] is 101 to 300 nM; in assay [3], 301 to 1000 nM; in assay [4], 101 to 300 nM. Moreover, the GI50 – broadly, the concentration giving 50% growth inhibition – in assay [5] is 301 to 1000 nM.
Turning to `COc1cc(S(=O)(=O)N2CCC(N3CCOCC3)CC2)ccc1Nc1cc(NCCS(C)(=O)=O)c2c(C#N)c[nH]c2n1` [Example 141, 6-((2-methoxy-4-((4-morpholinopiperidin-1-yl)sulfonyl)phenyl)amino)-4-((2-(methylsulfonyl)ethyl)amino)-1H-pyrrolo[2,3-b]pyridine-3-carbonitrile], the IC50 in assay [1] was under 100 nM; in assay [3] it was 301 to 1000 nM; in assay [4], under 100 nM. The GI50 in assay [2] was 51 to 100 nM; in assay [5] it was 101 to 300 nM.
Take `COc1cc(S(=O)(=O)N2CCOCC2)ccc1Nc1cc(NC2CCC2)c2c(C(F)(F)F)c[nH]c2n1` [Example 203, N^4-cyclobutyl-N^6-(2-methoxy-4-(morpholinosulfonyl)phenyl)-3-(trifluoromethyl)-1H-pyrrolo[2,3-b]pyridine-4,6-diamine]: the IC50 in assay [1], in assay [3] and in assay [4] was 301 to 1000 nM throughout. Further, the GI50 in assay [2] and in assay [5] was 301 to 1000 nM in each case.
Consider `CNc1cc(Nc2ccc(P3(=O)CCN(C4CCOCC4)CC3)cc2OC)nc2[nH]cc(C(F)(F)F)c12` [Example 216, 4-(3-methoxy-4-((4-(methylamino)-3-(trifluoromethyl)-1H-pyrrolo[2,3-b]pyridin-6-yl)amino)phenyl)-1-(tetrahydro-2H-pyran-4-yl)-1,4-azaphosphinane 4-oxide], for which the IC50 in assay [1] was under 100 nM; in assay [3], under 100 nM; in assay [6] it was 101 to 300 nM; in assay [4] it was 101 to 300 nM. The molecule further yielded a GI50 in assay [5] of 301 to 1000 nM. In assay [7], at 0.25 µM the inhibition was 22.8%. The inhibition (commonly the change of the read-out against control, counted positive when it falls) at 0.5 µM in assay [7] was determined as 30.3%. This molecule also registered an inhibition at 1 µM in assay [7] of 49.5%.
Consider `CNc1cc(Nc2cc(F)c(S(=O)(=O)N3CCC(N4CCOCC4)CC3)cc2OC)nc2[nH]cc(C(F)(F)F)c12` [Example 265, N^6-(5-fluoro-2-methoxy-4-((4-morpholinopiperidin-1-yl)sulfonyl)phenyl)-N^4-methyl-3-(trifluoromethyl)-1H-pyrrolo[2,3-b]pyridine-4,6-diamine], for which the IC50 in assay [1] is 101 to 300 nM; in assay [3] it was 301 to 1000 nM; in assay [6], under 100 nM. The GI50 in assay [2] and in assay [5] was 301 to 1000 nM each time.
As for `COc1cc(S(=O)(=O)N2CCC(N3CCOCC3)CC2)ccc1Nc1cc(NC(C)C)c2c(C(F)(F)F)c[nH]c2n1` [Example 198, N^4-isopropyl-N^6-(2-methoxy-4-((4-morpholinopiperidin-1-yl)sulfonyl)phenyl)-3-(trifluoromethyl)-1H-pyrrolo[2,3-b]pyridine-4,6-diamine], the half-maximal inhibitory concentration (IC50) in assay [1] and in assay [3] was 301 to 1000 nM each time. The 50% growth inhibitory concentration (GI50) in assay [2] and in assay [5] was 301 to 1000 nM each time.
`O=C(c1ccc(Nc2cc(NC3CC3)c3c(C(F)(F)F)c[nH]c3n2)c2c1OCCO2)N1CCC(N2CCOCC2)CC1` [Example 163, (8-((4-(cyclopropylamino)-3-(trifluoromethyl)-1H-pyrrolo[2,3-b]pyridin-6-yl)amino)-2,3-dihydrobenzo[b] [1,4]dioxin-5-yl)(4-morpholinopiperidin-1-yl)methanone]: the concentration for half-maximal inhibition (IC50) in assay [1] is 101 to 300 nM; in assay [3], under 100 nM; in assay [6], under 100 nM; in assay [4], under 100 nM. In addition, in assay [5], the GI50 lay within 301 to 1000 nM.
As to `COCCNc1cc(Nc2ccc(P3(=O)CCN(C4COC4)CC3)cc2OC)nc2[nH]cc(C(F)(F)F)c12` [Example 41, 4-(3-methoxy-4-((4-((2-methoxyethyl)amino)-3-(trifluoromethyl)-1H-pyrrolo[2,3-b]pyridin-6-yl)amino)phenyl)-1-(oxetan-3-yl)-1,4-azaphosphinane 4-oxide], the concentration for half-maximal inhibition (IC50) in assay [1], in assay [3] and in assay [4] was under 100 nM throughout. Further, in assay [5], the GI50 lay in the range of 301 to 1000 nM.
With `COCCNc1cc(Nc2ccc(P3(=O)CCN(C4CCOCC4)CC3)cc2OC)nc2[nH]cc(C(F)(F)F)c12` [Example 95, 4-(3-methoxy-4-((4-((2-methoxyethyl)amino)-3-(trifluoromethyl)-1H-pyrrolo[2,3-b]pyridin-6-yl)amino)phenyl)-1-(tetrahydro-2H-pyran-4-yl)-1,4-azaphosphinane 4-oxide], the IC50 in assay [1] was under 100 nM; in assay [3], 101 to 300 nM; in assay [6] it was 101 to 300 nM; in assay [4] it was 101 to 300 nM. The GI50 in assay [5] is 301 to 1000 nM. The same molecule showed an inhibition at 0.25 µM in assay [7] of 9.5%. This molecule also gave an inhibition at 0.5 µM in assay [7] of 29.2%. The same molecule gave an inhibition at 1 µM in assay [7] of 33.3%.
`CNc1cc(Nc2ccc(S(=O)(=O)N3CCOCC3)cc2OC)nc2[nH]ccc12` [Example 10, N^6-(2-methoxy-4-(morpholinosulfonyl)phenyl)-N^4-methyl-1H-pyrrolo[2,3-b]pyridine-4,6-diamine]: the IC50 in assay [1] was 301 to 1000 nM; in assay [3], 301 to 1000 nM; in assay [6] it was 101 to 300 nM. Moreover, the GI50 in assay [2] and in assay [5] was 301 to 1000 nM each time.
